Results from EP4592286A1, “MACROCYCLIC NITROGEN-CONTAINING CROWN ETHER COMPOUND AND USE THEREOF AS PROTEIN KINASE INHIBITOR” (Artivila Biopharma, priority 2022, dated 2024).

Tests used:
JAK1 [1] = target: T1, JAK1 (Homo sapiens, UniProt P23458); experiment: experiment of inhibiting kinase activity (Caliper mobility shift assay), JAK1; assay type: biochemical; settings: for inhibition at 0.1 µM: at 100 nM; for IC50: kinase activity assay, Table 3
Procedure, shortened: (§1)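 Read-out was Caliper mobility shift of substrate conversion, normalized to no-inhibitor and buffer-only wells, with IC50 from a variable-slope log(inhibitor) curve. Enzyme was exposed to compound (10-point 3-fold series from 10 µM, or single 10/100 nM) 10 min at room temperature before ATP/substrate addition.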

wild-type LRRK2 = target: T2, wild-type LRRK2 (Homo sapiens, UniProt Q5S007); experiment: detection of phosphorylated S935 in HEK293T overexpressing wild-type LRRK2; assay type: cell-based; settings: pS935, HEK293T overexpressing wild-type LRRK2, 1.5 hours
T2 construct: pCMV-flag-WT LRRK2 (full-length); expressed in transfected cells; host or cells: HEK293T
T2 sequence (Q5S007 whole entry): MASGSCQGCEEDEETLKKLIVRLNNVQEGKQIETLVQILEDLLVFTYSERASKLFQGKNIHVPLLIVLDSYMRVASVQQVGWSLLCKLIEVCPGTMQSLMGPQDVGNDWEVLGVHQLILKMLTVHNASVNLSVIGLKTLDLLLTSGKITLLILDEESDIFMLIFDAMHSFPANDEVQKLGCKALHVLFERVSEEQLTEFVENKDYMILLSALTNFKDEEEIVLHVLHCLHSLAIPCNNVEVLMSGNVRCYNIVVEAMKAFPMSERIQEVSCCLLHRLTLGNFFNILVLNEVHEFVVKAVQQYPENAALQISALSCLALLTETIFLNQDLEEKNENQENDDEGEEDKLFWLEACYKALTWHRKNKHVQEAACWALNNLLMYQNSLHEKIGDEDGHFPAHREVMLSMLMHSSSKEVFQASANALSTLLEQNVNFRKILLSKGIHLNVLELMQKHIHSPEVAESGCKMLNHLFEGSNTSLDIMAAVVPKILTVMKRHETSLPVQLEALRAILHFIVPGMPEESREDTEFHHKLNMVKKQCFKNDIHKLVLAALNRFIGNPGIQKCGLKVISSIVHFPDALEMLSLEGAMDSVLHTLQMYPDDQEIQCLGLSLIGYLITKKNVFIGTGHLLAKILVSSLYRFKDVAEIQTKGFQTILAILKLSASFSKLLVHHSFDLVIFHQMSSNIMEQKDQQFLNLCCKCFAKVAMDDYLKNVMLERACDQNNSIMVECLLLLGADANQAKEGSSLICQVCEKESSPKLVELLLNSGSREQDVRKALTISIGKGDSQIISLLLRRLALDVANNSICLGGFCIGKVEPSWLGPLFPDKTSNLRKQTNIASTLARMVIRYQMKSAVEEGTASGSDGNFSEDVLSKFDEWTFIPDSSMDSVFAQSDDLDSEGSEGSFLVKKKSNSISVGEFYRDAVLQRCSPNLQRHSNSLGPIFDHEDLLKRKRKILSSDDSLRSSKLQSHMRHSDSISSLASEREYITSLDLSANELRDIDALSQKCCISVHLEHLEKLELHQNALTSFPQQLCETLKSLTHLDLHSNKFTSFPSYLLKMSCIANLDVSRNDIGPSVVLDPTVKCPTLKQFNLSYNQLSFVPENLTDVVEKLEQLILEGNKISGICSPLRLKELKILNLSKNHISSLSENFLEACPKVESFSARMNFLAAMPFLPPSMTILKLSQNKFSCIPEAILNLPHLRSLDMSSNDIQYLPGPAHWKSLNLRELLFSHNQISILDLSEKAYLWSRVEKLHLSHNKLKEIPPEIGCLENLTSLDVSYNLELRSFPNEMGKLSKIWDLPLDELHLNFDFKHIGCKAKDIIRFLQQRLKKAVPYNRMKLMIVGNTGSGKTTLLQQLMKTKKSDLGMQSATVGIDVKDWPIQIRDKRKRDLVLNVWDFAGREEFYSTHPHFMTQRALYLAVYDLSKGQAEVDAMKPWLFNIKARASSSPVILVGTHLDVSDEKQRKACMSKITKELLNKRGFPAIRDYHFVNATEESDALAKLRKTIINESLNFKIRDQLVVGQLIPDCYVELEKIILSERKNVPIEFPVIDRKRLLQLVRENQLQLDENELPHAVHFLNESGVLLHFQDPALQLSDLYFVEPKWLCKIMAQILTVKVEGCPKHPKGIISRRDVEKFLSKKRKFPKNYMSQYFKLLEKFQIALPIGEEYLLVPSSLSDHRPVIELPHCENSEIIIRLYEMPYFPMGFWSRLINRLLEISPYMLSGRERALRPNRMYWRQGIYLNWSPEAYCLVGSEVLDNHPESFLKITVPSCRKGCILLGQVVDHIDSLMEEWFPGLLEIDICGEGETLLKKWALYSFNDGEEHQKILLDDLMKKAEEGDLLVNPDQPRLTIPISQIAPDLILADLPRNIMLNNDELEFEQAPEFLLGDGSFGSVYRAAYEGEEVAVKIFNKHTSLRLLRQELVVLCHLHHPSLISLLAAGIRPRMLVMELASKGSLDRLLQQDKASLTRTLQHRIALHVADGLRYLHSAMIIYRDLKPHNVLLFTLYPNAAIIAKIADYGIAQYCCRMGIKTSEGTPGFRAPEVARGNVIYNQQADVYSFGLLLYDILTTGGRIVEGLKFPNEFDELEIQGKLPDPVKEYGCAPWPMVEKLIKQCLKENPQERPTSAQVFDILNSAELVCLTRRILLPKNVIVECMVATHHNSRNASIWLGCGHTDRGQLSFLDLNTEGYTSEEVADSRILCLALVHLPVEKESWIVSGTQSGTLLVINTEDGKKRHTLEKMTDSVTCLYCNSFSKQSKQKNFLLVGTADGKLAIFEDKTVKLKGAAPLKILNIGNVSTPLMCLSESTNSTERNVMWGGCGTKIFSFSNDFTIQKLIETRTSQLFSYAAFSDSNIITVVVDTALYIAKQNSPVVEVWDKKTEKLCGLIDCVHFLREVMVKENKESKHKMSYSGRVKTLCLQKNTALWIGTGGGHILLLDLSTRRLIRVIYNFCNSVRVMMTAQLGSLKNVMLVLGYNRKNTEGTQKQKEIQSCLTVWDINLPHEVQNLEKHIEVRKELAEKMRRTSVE
Procedure: (§2) Detection of phosphorylated S935 in HEK293T Overexpressing full-length LRRK2 (G2019S) or wild-type LRRK2
(§3) HEK293T cells was inoculated into a 6-well plate and cultured overnight. The next day, they were transiently transfected with plasmid pcDNA5-FRT/TO-FLAG LRRK2 (G2019S, full-length) or pCMV-flag-WT LRRK2 (full-length) by using Superfect transfection reagent and cultured at 37°C and 5% CO2 for 20-24 hours. The next day, cells were collected, resuspended at a density of 0.48×10^6 cells/ml, and inoculated into a 384-well plate at 50 microliters/well. Compound or DMSO solutions (volume ratio of 0.5%) were added by Tecan, and cultured at 37°C and 5% CO2 for 1.5 hours. After 1.5 hours, the supernatant was discarded, 50 microliters of 8% PFA were added in each well to fix the cells, and the cells were incubated at room temperature for 1 hour. The plate was washed with EL406 plate washer for three times, with 115 microliters of PBST per well, and the culture plate was patted to dryness. The cells were blocked with 50 microliters/well of Licor Odyssey blocking solution (0.1% Tween 20) at room temperature for 1.5 hours. The blocking solution was discarded and the culture plate was patted to dryness. 20 microliters of primary antibody (1:1000(pS935), diluted with Licor Odyssey buffer (0.1% Tween20)) was added into each well, and incubated at 4 °C overnight. The next day, the first antibody was discarded and washing was performed with PBST for five times. 20 microliters of secondary antibody (diluted with Licor Odyssey buffer (0.1% Tween20) at 1:500 and stained with DNA at 1:2000) were added into each well, and incubated at room temperature for 1 hour. The second antibody was discarded, and washing was performed for three times with PBST. The fluorescence intensity was measured by LICOR Odyssey imager Scanner, and the data was analyzed.

JAK2 = JAK2 (Homo sapiens, UniProt O60674); experiment: experiment of inhibiting kinase activity (Caliper mobility shift assay), JAK2; assay type: biochemical; settings: for inhibition at 0.01 µM: at 10 nM; for inhibition at 0.01 µM / inhibition at 0.1 µM: read-out: inhibition rate JAK2; for inhibition at 0.1 µM: at 100 nM; for IC50: kinase activity assay, Table 3
JAK2, sequence (O60674 whole entry): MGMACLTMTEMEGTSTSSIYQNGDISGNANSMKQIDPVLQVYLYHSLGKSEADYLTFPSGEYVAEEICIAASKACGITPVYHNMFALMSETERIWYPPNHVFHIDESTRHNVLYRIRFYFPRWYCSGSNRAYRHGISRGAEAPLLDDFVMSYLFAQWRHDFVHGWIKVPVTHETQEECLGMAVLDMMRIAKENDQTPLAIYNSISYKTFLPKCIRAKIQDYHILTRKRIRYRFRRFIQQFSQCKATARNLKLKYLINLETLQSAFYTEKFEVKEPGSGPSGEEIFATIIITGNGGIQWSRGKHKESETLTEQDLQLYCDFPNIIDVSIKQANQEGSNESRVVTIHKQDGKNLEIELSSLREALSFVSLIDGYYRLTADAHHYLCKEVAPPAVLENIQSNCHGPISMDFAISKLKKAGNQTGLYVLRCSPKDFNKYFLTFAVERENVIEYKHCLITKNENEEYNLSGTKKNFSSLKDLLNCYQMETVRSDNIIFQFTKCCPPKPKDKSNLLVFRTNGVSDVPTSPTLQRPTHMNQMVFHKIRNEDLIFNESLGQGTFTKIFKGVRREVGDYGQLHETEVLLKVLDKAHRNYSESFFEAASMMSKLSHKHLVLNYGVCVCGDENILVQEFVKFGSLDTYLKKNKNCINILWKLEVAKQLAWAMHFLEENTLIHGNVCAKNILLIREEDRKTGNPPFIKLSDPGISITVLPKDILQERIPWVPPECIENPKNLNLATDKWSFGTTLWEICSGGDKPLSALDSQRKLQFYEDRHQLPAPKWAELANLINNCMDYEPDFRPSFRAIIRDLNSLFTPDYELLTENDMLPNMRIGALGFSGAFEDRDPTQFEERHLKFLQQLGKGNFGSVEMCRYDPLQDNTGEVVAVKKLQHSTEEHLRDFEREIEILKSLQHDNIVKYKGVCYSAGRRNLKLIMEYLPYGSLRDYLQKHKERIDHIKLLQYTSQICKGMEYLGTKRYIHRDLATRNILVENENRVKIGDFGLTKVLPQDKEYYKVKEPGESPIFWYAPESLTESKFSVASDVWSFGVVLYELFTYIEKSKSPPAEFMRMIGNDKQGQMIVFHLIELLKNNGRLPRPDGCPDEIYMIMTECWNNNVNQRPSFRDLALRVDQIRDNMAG
Procedure, shortened: as §1

JAK1 [2] = target: T1, JAK1; experiment: JAKs cell activity test: detection of pSTAT6 in THP1 cells induced by JAK1_IL-4; assay type: cell-based; settings: pSTAT6, IL-4-induced THP1 cells
Procedure: Detection of pSTAT6 in THP1 cells induced by JAK1_IL-4
(§4) THP1 cells were collected by centrifugation, resuspended with 1×HBSS, counted and diluted to a certain cell density. They were inoculated in a 384-well plate and cultured in a saturated humidity incubator with 37 °C and 5% CO2. The compound (DMSO final volume of 0.3%) was added to THP1 cells (10 doses in duplicates) and cultured in a saturated humidity incubator with 37 °C and 5% CO2. hIL-4 was added to stimulate cells and cultured in a saturated humidity incubator with 37 °C and 5% CO2. The lysis solution was added and incubated at room temperature. According to the instructions of AlphaLISA SureFire Ultra p-STAT6 detection kit, the lysis solution was transferred to pSTAT6 detection system, and the ALPHA signal was read by PE Envision microplate reader. The inhibition rate Inh%=((DMSO-sample)/(DMSO-background))×100 was calculated. IC50 was obtained by fitting with GraphPad Prism non-linear regression equation, and y=Bottom+(Top-Bottom)/(1+10^((LogIC50-x)×hillslope)), where x was the concentration of the compound and y was the inhibition rate.

LRRK2 = LRRK2 (Homo sapiens, UniProt Q5S007); experiment: experiment of inhibiting kinase activity, LRRK2; assay type: biochemical; settings: for inhibition at 0.1 µM: at 100 nM; for IC50: kinase activity assay, Table 3
LRRK2, sequence (Q5S007 whole entry): as the sequence (Q5S007 whole entry) above
Procedure: (§5) The inhibition rates of tested compounds on JAK1, JAK2, JAK3, TYK2, CDK7, CDK9, EGFR (T790M) and LRRK2 kinases were measured. The test concentrations of the compounds were 10 nM and 100 nM, and the detection was performed by replicate wells. Alternatively, compounds were 3-fold serial diluted from 10 µM for 10 concentrations in replicate wells.

JAK3 [3] = target: T3, JAK3 (Mus musculus, UniProt Q62137); experiment: JAKs cell activity test: JAK3_pSTAT5 in IL-2-induced CTLL-2 cells; assay type: cell-based; settings: pSTAT5, IL-2-induced CTLL-2 cells
T3 construct: endogenous in cells; host or cells: CTLL-2
T3 sequence (Q62137 1-1100): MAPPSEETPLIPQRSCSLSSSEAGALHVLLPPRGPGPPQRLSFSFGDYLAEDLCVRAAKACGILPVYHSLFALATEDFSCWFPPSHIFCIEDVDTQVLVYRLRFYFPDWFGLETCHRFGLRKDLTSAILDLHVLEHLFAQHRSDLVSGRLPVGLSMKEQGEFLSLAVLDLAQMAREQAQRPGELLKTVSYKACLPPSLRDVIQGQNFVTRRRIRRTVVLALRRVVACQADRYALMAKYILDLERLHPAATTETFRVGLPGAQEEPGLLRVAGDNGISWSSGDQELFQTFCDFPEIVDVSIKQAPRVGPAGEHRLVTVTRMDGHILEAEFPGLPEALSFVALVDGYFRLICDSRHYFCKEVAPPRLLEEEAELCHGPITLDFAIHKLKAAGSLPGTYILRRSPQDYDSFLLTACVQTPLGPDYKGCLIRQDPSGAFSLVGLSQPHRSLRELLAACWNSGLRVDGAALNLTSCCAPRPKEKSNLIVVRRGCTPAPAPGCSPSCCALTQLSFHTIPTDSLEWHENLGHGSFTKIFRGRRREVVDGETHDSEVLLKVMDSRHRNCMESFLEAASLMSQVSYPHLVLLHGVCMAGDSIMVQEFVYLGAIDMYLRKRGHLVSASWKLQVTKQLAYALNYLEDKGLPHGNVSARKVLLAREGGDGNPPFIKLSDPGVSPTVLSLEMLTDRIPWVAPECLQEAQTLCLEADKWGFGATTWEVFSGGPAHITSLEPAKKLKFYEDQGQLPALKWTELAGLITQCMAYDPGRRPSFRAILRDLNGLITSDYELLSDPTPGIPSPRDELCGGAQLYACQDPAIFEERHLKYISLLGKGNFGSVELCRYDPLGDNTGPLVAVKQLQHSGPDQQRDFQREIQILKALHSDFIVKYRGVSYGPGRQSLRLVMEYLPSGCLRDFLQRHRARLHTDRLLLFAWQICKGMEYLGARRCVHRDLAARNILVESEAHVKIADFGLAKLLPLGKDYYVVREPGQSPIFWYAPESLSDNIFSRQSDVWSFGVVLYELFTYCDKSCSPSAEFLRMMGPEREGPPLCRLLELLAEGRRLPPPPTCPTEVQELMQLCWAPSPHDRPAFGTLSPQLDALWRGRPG
Procedure: as §4
JAK2_pSTAT5 was tesed in IL-3-induced BAF3 cells according to the above steps, and JAK3_pSTAT5 was tested in IL-2-induced CTLL-2 cells (without serum stimulation) according to the above steps.

LRRK2 (G2019S) = target: T4, LRRK2 (G2019S) (Homo sapiens, UniProt Q5S007, G2019S); experiment: detection of phosphorylated S935 in HEK293T overexpressing full-length LRRK2 (G2019S); assay type: cell-based; settings: pS935, HEK293T overexpressing LRRK2 (G2019S), 1.5 hours
T4 construct: pcDNA5-FRT/TO-FLAG LRRK2 (G2019S, full-length); expressed in transfected cells; host or cells: HEK293T
T4 sequence (Q5S007 whole entry G2019S): as the sequence (Q5S007 whole entry) above, with G2019S counted along it
Procedure: as §2, §3

TYK2 = TYK2 (Homo sapiens, UniProt P29597); experiment: experiment of inhibiting kinase activity, TYK2; assay type: biochemical; settings: at 10 nM; read-out: inhibition rate TYK2
Procedure: as §5

JAK3 [4] = target: T5, JAK3 (Homo sapiens, UniProt P52333); experiment: experiment of inhibiting kinase activity (Caliper mobility shift assay), JAK3; assay type: biochemical; settings: at 10 nM; read-out: inhibition rate JAK3
T5 sequence (P52333 1-1124): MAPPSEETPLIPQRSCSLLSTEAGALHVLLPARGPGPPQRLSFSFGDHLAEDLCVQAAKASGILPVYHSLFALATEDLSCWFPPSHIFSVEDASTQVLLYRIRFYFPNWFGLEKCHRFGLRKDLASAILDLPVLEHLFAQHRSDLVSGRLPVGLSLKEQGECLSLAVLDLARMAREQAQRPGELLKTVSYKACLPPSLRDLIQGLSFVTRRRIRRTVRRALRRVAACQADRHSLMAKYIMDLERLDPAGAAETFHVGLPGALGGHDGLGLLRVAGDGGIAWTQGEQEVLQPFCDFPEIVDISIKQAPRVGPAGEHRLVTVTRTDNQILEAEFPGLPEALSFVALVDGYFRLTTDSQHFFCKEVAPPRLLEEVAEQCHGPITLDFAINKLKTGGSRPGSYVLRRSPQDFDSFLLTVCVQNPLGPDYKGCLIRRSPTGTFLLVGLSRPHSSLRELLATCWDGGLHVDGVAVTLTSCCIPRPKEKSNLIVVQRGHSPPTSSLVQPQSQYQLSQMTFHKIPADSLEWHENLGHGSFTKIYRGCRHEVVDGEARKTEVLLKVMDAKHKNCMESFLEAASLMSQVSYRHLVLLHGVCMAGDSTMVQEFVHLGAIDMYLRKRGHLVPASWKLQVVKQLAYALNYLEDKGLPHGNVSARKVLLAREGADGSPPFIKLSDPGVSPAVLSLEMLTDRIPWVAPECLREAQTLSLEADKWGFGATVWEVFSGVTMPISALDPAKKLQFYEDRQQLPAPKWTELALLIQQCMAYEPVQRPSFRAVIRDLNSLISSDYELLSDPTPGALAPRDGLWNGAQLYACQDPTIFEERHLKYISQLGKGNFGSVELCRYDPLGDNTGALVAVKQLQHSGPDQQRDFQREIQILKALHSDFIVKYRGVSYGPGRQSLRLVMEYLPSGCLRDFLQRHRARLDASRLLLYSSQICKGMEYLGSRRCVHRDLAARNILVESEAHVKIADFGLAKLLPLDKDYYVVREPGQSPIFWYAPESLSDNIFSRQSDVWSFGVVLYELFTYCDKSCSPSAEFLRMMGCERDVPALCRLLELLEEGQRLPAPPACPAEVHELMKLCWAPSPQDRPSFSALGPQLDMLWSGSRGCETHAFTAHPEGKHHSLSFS
Procedure, shortened: as §1

[5] = read-out: inhibition rate LRRK2

T1 sequence (P23458 whole entry): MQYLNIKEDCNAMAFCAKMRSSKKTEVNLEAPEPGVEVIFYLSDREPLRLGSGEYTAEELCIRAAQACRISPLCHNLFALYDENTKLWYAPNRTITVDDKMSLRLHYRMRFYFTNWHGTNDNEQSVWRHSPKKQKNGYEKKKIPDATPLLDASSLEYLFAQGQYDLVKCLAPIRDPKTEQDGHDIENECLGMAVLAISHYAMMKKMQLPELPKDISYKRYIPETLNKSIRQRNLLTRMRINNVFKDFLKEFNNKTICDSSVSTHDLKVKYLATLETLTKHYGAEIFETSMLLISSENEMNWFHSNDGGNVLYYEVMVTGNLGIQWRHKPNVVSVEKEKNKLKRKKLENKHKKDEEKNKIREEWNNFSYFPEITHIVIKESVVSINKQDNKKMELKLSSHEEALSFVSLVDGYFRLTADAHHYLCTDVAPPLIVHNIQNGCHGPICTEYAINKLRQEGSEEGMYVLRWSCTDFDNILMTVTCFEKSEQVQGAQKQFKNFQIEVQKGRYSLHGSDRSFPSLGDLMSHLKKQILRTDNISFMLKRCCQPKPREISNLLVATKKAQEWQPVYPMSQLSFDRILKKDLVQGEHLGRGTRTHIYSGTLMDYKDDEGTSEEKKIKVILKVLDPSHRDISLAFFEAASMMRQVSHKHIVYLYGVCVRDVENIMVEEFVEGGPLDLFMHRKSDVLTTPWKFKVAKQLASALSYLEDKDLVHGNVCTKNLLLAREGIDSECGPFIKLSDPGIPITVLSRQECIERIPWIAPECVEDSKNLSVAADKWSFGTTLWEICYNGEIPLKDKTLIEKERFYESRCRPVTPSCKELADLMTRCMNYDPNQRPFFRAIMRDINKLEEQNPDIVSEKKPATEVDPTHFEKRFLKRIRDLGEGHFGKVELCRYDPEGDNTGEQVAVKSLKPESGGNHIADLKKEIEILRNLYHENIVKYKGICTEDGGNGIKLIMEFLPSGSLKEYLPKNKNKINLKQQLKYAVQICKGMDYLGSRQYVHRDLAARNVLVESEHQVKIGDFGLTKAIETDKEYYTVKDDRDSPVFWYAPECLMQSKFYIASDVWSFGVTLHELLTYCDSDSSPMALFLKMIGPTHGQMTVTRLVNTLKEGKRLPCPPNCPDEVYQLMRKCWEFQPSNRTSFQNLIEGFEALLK

inhibition at 0.1 µM (JAK1 [1]; read-out: inhibition rate JAK1) [%]	IC50 (JAK1 [1]) [nM]	EC50 (wild-type LRRK2) [nM]	inhibition at 0.01 µM (JAK2) [%]	inhibition at 0.1 µM (JAK2) [%]	IC50 (JAK2) [nM]	EC50 (JAK1 [2]) [nM]	inhibition at 0.1 µM (LRRK2; [5]) [%]	IC50 (LRRK2) [nM]	inhibition at 0.01 µM (JAK1 [1]; at 10 nM, read-out: inhibition rate JAK1) [%]	EC50 (JAK3 [3]) [nM]	EC50 (LRRK2 (G2019S)) [nM]	inhibition at 0.01 µM (TYK2) [%]	inhibition at 0.01 µM (JAK3 [4]) [%]	inhibition at 0.01 µM (LRRK2; at 10 nM, read-out: inhibition rate LRRK2) [%]	Structure (SMILES)
> 80	< 50	< 500	40 to 79	> 80	< 50	< 50	> 80	< 50							CN1CCOc2ccc(Nc3nc(-c4ccc(C(=O)NCC#N)cc4)c4cc[nH]c4n3)cc2OCC1 [Example 2, N-(cyanomethyl)-4-(2-((4-methyl-3,4,5,6-tetrahydro-2H-benzo[b][1,4,7]dioxazolin-9-yl)amino)-7H-pyrrolo[2,3-d]pyrimidin-4-yl)benzamide]
> 80	< 50		> 80	> 80	< 50	< 50	> 80	< 50	40 to 79	< 50					CN1CCOc2ccc(Nc3nc(-c4cnn(C(CC#N)C5CCCC5)c4)c4cc[nH]c4n3)cc2OCC1 (centres unmarked) [Example 27, 3-cyclopentyl-3-(4-(2-((4-methyl-3,4,5,6-tetrahydro-2H-benzo[b][1,4,7]dioxazolin-9-yl)amino)-7H-pyrrolo[2,3-d]pyrimidin-4-yl)-1H-pyrazol-1-yl)propanenitrile]
		< 500	> 80					< 50			< 500	40 to 79	> 80	> 80	CN1CCOc2ccc(Nc3nc(Nc4ccccc4P(C)(C)=O)c4cc[nH]c4n3)cc2OCC1 [Example 73, dimethyl(2-((2-((4-methyl-3,4,5,6-tetrahydro-2H-benzo[b][1,4,7]dioxazolin-9-yl)amino)-7H-pyrrolo[2,3-d]pyrimidin-4-yl)amino)phenyl)phosphine oxide]
